Experiments:
[1] = Hydrolytic stability in KPi buffer without thiol (NMR); type: physicochemical; conditions: for % degradation: over 12 hours, 50 mM KPi, footnote a: crashing out of solution, no degradation product; for hydrolysis in aqueous buffer (in words): buffer in the absence of GSH
Method: NMR studies: rate constant determination and hydrolytic stability. 850 µL of 50 mM Kpi buffer solution (pH 8.2 or 7), 20 µL of the appropriate pyrimidine stock s olution (100 mM in DMSO -d6), 20 µL of TMSP stock solution (22.2 mM in DI water), 30 µL DMSO -d6, and 80 µL of GSH stock solution (0.25 M in DI water, reactivity only) were successively added/mixed at room temperature, final pH 7.0 or 6.5 (Table S1). 600 µL of this freshly prepared solution was poured into an NMR tube and immediately […]
transferred to the NMR instrument for acquisition. 1H spectra (16 scans) were recorded every 10 minutes under water suppression conditions. Following acquisition, spectra were analysed using […]
order reaction rate constants (k’).

p53-Y220C DBD = biological target: T1, p53-Y220C DBD (Homo sapiens, UniProt P04637, M133L/N239Y/N268D/V203A/Y220C); test: Protein arylation by ESI mass spectrometry; type: binding
T1 construct: (residues 94-312); 6xHis/lipoyl domain/TEV protease cleavage site (N, cleaved yes); made in house; host or cells: E. coli C41
Method: In mass spectrometry experiments, we incubated 50 μM purified p53-Y220C DBD in KPi buffer at varying pH’s (6.0–8.0), temperatures (0 and 20 °C), and equivalents of 2-SPs (20–100). Representative 2-SPs were selected to span a broad reactivity range to determine whether trends observed in GSH in vitro assays translate to relative rates of modification of solvent exposed cysteines in folded proteins. […] The same could also be achieved with only 20 equiv of reagent by increasing the temperature to 20 °C, or raising the pH to 8.0. This is an important result because late-stage protein functionalization with bromo- and iodo-(hetero)aromatic motifs is challenging and inaccessible by metal-catalyzed arylation methodologies due to dehalogenation and/or off-target specificity. The introduction of an iodo-(hetero)aromatic motif on the protein surface facilitates drastically the crystal structure resolution with a sharp variation of density. […] Overall, we observed good correlation between GSH and protein experiments.
Figure 4 Biophysical and structural characterization of protein cysteine arylation by 2-SPs. […] Stoichiometry, reaction time/temperature, and pH are indicated in each case. X axis: m/z (Da). Y axis: normalized intensities as a percentage of the most intense peak. Middle: Structure of the modified Y220C mutant (green) superimposed onto the structure of the unmodified protein (gray, PDB entry 6SHZ)[40] showing the region around modified C182 (E) and C277 (F). Hydrogen bonds formed by the pyrimidine are highlighted as dashed yellow lines. 2Fo – Fc electron density maps are shown at a contour level of 1.3σ for segments of chain B including the modified residues C182 and C277. Bottom (F): Protein thermal stability (ΔTm, °C) of p53-Y220C, β-catenin ARD. and FGE, determined by DSF in the presence of 100 μM 2-SP derivatives. […]

p53-Y220C = biological target: T2, p53-Y220C (Homo sapiens, UniProt P04637, M133L/N239Y/N268D/V203A/Y220C); test: Differential scanning fluorimetry (DSF); type: binding; conditions: 100 μM compound; 8 µM p53-Y220C; read-out: Protein thermal stability ΔTm
T2 construct: (residues 94-312); 6xHis/lipoyl domain/TEV protease cleavage site (N, cleaved yes); made in house; host or cells: E. coli C41
Description: (§1) We also probed the general effect of 2-SPs on protein stability by using differential scanning fluorimetry (DSF). […] Mutants of the 25 kDa DNA-binding domain of the tumor suppressor p53 are notorious for their reduced thermal stability and denaturation/aggregation propensity.[37] The 56 kDa armadillo domain (ARD) of β-catenin mediates canonical Wnt signaling and plays a central role in embryogenesis and tissue homeostasis.[38] FGE (37 kDa) is the only known activator of human sulfatases, and its stability is susceptible to modification of its cysteines.[39] […]
described.7 Briefly, the N-terminal fusion protein (6xHis/lipoyl domain/TEV protease cleavage site) was overexpressed using E. coli C41 cells in 2xTY medium at 20°C for 16 h and purified using standard Ni-affinity chromatography protocols. […]
was further purified using a Heparin column. Finally, gel filtration chromatography was performed using a Superdex 75 16/60 preparative gel filtration column (GE Healthcare) in a 25 mM KPi (pH 7.2), 150 […]
mM NaCl, and 1 mM TCEP buffer. […]
gel electrophoresis and ESI-MS. […]

FGE-C341S = biological target: T3, FGE-C341S (Homo sapiens, UniProt Q8NBK3, C341S); test: Differential scanning fluorimetry (DSF); type: binding; conditions: 100 μM compound; 10 µM FGE; read-out: Protein thermal stability ΔTm
T3 construct: His7 (C); made in house; host or cells: High Five insect cells (baculovirus, pAcGP67B-His7)
T3 sequence (Q8NBK3 34-374 C341S): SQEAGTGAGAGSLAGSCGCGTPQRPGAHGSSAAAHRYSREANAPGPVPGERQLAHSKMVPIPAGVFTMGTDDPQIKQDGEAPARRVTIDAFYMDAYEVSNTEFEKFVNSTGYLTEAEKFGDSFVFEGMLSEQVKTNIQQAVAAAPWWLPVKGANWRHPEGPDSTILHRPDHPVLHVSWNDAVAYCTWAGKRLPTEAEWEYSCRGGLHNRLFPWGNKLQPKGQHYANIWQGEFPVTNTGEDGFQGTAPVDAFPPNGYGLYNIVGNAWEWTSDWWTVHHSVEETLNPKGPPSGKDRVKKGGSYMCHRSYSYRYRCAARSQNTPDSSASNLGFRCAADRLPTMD
Description: as §1
The cloning of human FGE-WT cDNA into baculoviral transfer vector pAcGP67B-His7 and the generation of the recombinant virus (in Sf9 cells) for expression of C-terminally His-tagged recombinant human FGE in High Five insect cells have been […]
were generated by site -directed PCR mutagenesis using pAcGP67B-FGE-WT-His7 as template and the […]
-3’. All expression plasmids were verified by sequencing of the entire coding region to exclude any undesired PCR -derived errors. The purification method was essentially performed as described in Peng et al., with one modification. The size exclusion […]
chromatography (His -trap) step foll owed directly by a second step purification using the ion -exchange column chromatography (Resource -Q). […]

SMILES	% degradation ([1]; pH 7.0)	protein modification by ESI-MS (in words) (p53-Y220C DBD; 50 μM protein, all conditions tested, even after 4 h at 20 °C)	ΔTm at 100 µM (p53-Y220C)	ΔTm at 100 µM (FGE-C341S)	melting point	% degradation ([1]; pH 8.2)	hydrolysis in aqueous buffer (in words) [1]	protein arylation by ESI-MS (in words) (p53-Y220C DBD; 100 equiv, 0 °C, pH 7.2)	time to selective double arylation (p53-Y220C DBD; 100 equiv, 0 °C, pH 7.2)
Cc1cc(C)nc(S(C)(=O)=O)n1 [4a]	< 5%	could not detect any protein modification	0 °C	0 °C					
COc1ccnc(S(C)(=O)=O)n1 [4b]			0.2 °C	0 °C	60 °C				
Cc1ccnc(S(C)(=O)=O)n1 [4c]			-0.2 ± 0.1 °C	-0.6 °C		10%			
CS(=O)(=O)c1nccc(C(=O)O)n1 [4d]	< 5%		0.2 °C	-0.4 ± 0.3 °C	115 to 118 °C	< 5%			
CS(=O)(=O)c1nccc(-c2ccccc2)n1 [4e]	< 5%		0.2 °C	-0.2 ± 0.3 °C		50%			
COc1cc(OC)nc(S(C)(=O)=O)n1 [4f, 4,6-dimethoxy-2-methylsulfonylpyrimidine]			-0.2 ± 0.1 °C	0 °C					
CS(=O)(=O)c1nccc(N)n1 [4g]	5%		-0.2 ± 0.1 °C	-0.4 ± 0.3 °C	166 °C				
CS(=O)(=O)c1ncc(Br)c(C(=O)O)n1 [4i]			0.8 °C	-0.6 °C					
CS(=O)(=O)c1nccc(C(N)=O)n1 [4j]			-0.2 ± 0.1 °C	-0.6 °C					
COC(=O)c1ccnc(S(C)(=O)=O)n1 [4k]	77%		0.4 °C	-0.4 ± 0.3 °C	80 °C	100%			
CS(=O)(=O)c1nccc(C(F)(F)F)n1 [4l]	17%		1.8 °C	-0.6 °C	82 °C	65%	partial, slow hydrolysis		
CS(=O)(=O)c1ncc(-c2ccccc2)cn1 [4p]	78%		0.2 °C	-0.2 ± 0.3 °C	180 °C	78%			
CS(=O)(=O)c1ncccn1 [4q, 2-methylsulfonylpyrimidine]	< 5%		-0.2 ± 0.1 °C	-0.6 °C		< 5%			
CS(=O)(=O)c1ncc(Br)cn1 [4t]	< 5%		0.4 °C	-0.4 ± 0.3 °C		< 5%		completely selective double arylation	2.5 h
CS(=O)(=O)c1ncc(I)cn1 [4u]	< 5%		0.4 °C	-0.2 ± 0.3 °C	56 °C	14%		completely selective double arylation	
CS(=O)(=O)c1ncc(C(=O)O)cn1 [4v]	18%		3 °C	-0.4 ± 0.3 °C	138 °C				
CS(=O)(=O)c1ncc(C(F)(F)F)cn1 [4x]	97%		0.8 °C	-0.6 °C		100%	partial, slow hydrolysis		
CC(C)(C)S(=O)(=O)c1ncccn1 [5a]	< 5%		0.2 °C	-0.2 ± 0.3 °C	58 °C				
Nc1ccc(S(=O)(=O)c2ncccn2)cc1 [5b]			-0.2 ± 0.1 °C	-0.4 ± 0.3 °C	200 to 201 °C				
CCCCS(=O)(=O)c1ncccn1 [5c]			0 °C	-0.4 ± 0.3 °C					
O=S(=O)(c1ccccc1)c1ncccn1 [5d]	12%		0 °C	-0.4 ± 0.3 °C		10%			
O=S(=O)(CC(F)(F)F)c1ncccn1 [5e]	100%		1.8 °C	-0.6 °C	91 to 92 °C	100%			
O=[N+]([O-])c1ccc(S(=O)(=O)c2ncccn2)cc1 [5f]	100%		0.4 °C	-0.4 ± 0.3 °C	225 °C	100%			
O=S(=O)(NCc1ccccc1)c1ncccn1 [5g]			0.2 °C	0 °C		< 5%			
O=S(=O)(Oc1c(F)c(F)c(F)c(F)c1F)c1ncccn1 [5h]	100%		0.4 °C	-0.2 ± 0.3 °C		100%			

Reference: PMC10515483, “Structure–Reactivity Studies of 2-Sulfonylpyrimidines Allow Selective Protein Arylation” (Bioconjugate Chemistry, 2023)
